The structures appear in SMILES notation. Where two headings read alike, the source gives them in different places.

43 molecules from patent publication EP0475531A1, “Benzoic acid phenylester compounds and elastase inhibiting compositions containing the same” (Asahi Kasei Kogyo Kabushiki Kaisha, priority 1990, dated 1992) can be followed below.

This assay has as its target T1, human leukocyte elastase (Homo sapiens, UniProt P08246).
T1 sequence (P08246 30-267): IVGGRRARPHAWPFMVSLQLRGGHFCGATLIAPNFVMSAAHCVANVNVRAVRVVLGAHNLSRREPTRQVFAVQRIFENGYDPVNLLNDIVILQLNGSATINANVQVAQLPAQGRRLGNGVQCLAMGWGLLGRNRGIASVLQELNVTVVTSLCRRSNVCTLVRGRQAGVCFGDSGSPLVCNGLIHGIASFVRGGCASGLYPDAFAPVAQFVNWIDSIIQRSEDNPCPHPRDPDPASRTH
The experiment in a line: in vitro human leukocyte elastase inhibiting activity (fluorogenic substrate, method of JP-A-2-101017 with slight modification). In kind it is biochemical. On the procedure:
Thus, methoxysuccinyl-Ala-Ala-Pro-Val-7-amido-4-methylcoumarin was used as a substrate for human leukocyte elastase and the 50% inhibitory concentration (IC₅₀) was measured. The enzymatic reaction was carried out in 0.2 M Tris-hydrochloride buffer (containing 0.02 M CaCl₂ and 0.005% Triton X-100) at pH 7.2. Each mixture of test compound solution and the enzyme solution was incubated at 25°C for 20 minutes.

The mark [1] stands for this setting: 50% inhibitory concentration, substrate methoxysuccinyl-Ala-Ala-Pro-Val-7-amido-4-methylcoumarin, 0.2 M Tris-hydrochloride buffer (0.02 M CaCl2, 0.005% Triton X-100), pH 7.2, compound and enzyme incubated at 25°C for 20 minutes, read-out: IC50.

With `CSC(C)C(=O)Nc1ccc(C(=O)Oc2cc(Cl)cc(Cl)c2)cc1` (stereo not shown) [Compound 38, 3,5-dichlorophenyl 4-(2-methylthiopropanoylamino)benzoate], the IC50 under setting [1] was found to be 18 nM.

For the molecule `CC(S)C(=O)Nc1ccc(C(=O)Oc2cc(Cl)cc(Cl)c2)cc1` (stereo not shown) [Compound 39, 3,5-dichlorophenyl 4-(2-mercaptopropanoylamino)benzoate], the half-inhibitory concentration (IC50) under setting [1] was determined as 96 nM.

With `CC(C)(C(=O)O)C(=O)Nc1ccc(C(=O)Oc2cc(Cl)cc(Cl)c2)cc1` [Compound 40, 3,5-dichlorophenyl 4-(2,2-dimethylmalonylamino)benzoate], under setting [1], the IC50 was 3.4 nM.

As to `CC(C)(CC(=O)Nc1ccc(C(=O)Oc2cc(Cl)cc(Cl)c2)cc1)C(=O)O` [Compound 41, 3,5-dichlorophenyl 4-(3,3-dimethylsuccinylamino)benzoate], the IC50 under setting [1] turned out to be 47 nM.

Turning to `CC(C(=O)O)C(C)C(=O)Nc1ccc(C(=O)Oc2cc(Cl)cc(Cl)c2)cc1` (stereo not drawn) [Compound 42, 3,5-dichlorophenyl 4-(meso-2,3-dimethylsuccinylamino)benzoate], under setting [1], the IC50 was 2.1 nM.

With `O=C(O)CCCC(=O)Nc1ccc(C(=O)Oc2cc(Cl)cc(Cl)c2)cc1` [Compound 43, 3,5-dichlorophenyl 4-(glutarylamino)benzoate], under setting [1], the IC50 is 7.6 nM.

For the molecule `O=C(Oc1cc(Cl)cc(Cl)c1)c1ccc(NC(=O)C2CCCCC2C(=O)O)cc1` (stereo not shown) [Compound 44, 3,5-dichlorophenyl 4-(2-hydroxycarbonylcyclohexanecarbonylamino)benzoate], the IC50 under setting [1] was 18 nM.

As for `CC(C)(CCl)C(=O)Nc1ccc(C(=O)Oc2cc(Cl)cc(Cl)c2)cc1` [Compound 45, 3,5-dichlorophenyl 4-(3-chloro-2,2-dimethylpropanoylamino)benzoate], the concentration for half-maximal inhibition (IC50) under setting [1] came to 18 nM.

With `CC(C)(CC#N)C(=O)Nc1ccc(C(=O)Oc2cc(Cl)cc(Cl)c2)cc1` [Compound 46, 3,5-dichlorophenyl 4-(3-cyano-2,2-dimethylpropanoylamino)benzoate], the IC50 under setting [1] was 6.7 nM.

With `CC(C)(C)OC(=O)Nc1ccc(C(=O)Oc2cc(C=O)ccc2[N+](=O)[O-])cc1` [Compound 47, 3-formyl-6-nitrophenyl 4-(tert-butoxycarbonylamino)benzoate], the IC50 under setting [1] was determined as 3.8 nM.

Regarding `CC(C)C(=O)Nc1ccc(C(=O)Oc2ccccc2[N+](=O)[O-])cc1` [Compound 48, 6-nitrophenyl 4-(isobutanoylamino)benzoate], the IC50 under setting [1] came to 16 nM.

Take `CC(C)C(=O)Nc1ccc(C(=O)Oc2cccc(O)c2[N+](=O)[O-])cc1` [Compound 49, 5-hydroxy-6-nitrophenyl 4-(isobutanoylamino)benzoate]: the 50% inhibitory concentration (IC50) under setting [1] was determined as 180 nM.

In turn, `CC(C)C(=O)Nc1ccc(C(=O)Oc2cc([N+](=O)[O-])ccc2[N+](=O)[O-])cc1` [Compound 50, 2,5-dinitrophenyl 4-(isobutanoylamino)benzoate] yielded an IC50 of 4.7 nM.

As to `CC(C)C(=O)Nc1ccc(C(=O)Oc2cc(F)ccc2[N+](=O)[O-])cc1` [Compound 51, 3-fluoro-6-nitrophenyl 4-(isobutanoylamino)benzoate], the IC50 under setting [1] turned out to be 2.6 nM.

Turning to `Cc1ccc([N+](=O)[O-])c(OC(=O)c2ccc(NC(=O)C(C)C)cc2)c1` [Compound 52, 3-methyl-6-nitrophenyl 4-(isobutanoylamino)benzoate], the IC50 under setting [1] turned out to be 15 nM.

Turning to `CC(C)C(=O)Nc1ccc(C(=O)Oc2cc(C=O)ccc2[N+](=O)[O-])cc1` [Compound 53, 3-formyl-6-nitrophenyl 4-(isobutanoylamino)benzoate], the IC50 under setting [1] came to 3.4 nM.

In the case of `CC(C)C(=O)Nc1ccc(C(=O)Oc2cc(C(=O)O)ccc2[N+](=O)[O-])cc1` [Compound 54, 3-hydroxycarbonyl-6-nitrophenyl 4-(isobutanoylamino)benzoate], under setting [1], the half-inhibitory concentration (IC50) is 2.1 nM.

Turning to `COC(=O)c1ccc([N+](=O)[O-])c(OC(=O)c2ccc(NC(=O)C(C)C)cc2)c1` [Compound 55, 3-methoxycarbonyl-6-nitrophenyl 4-(isobutanoylamino)benzoate], the IC50 under setting [1] came out at 3.6 nM.

Regarding `COc1ccc(COC(=O)c2ccc([N+](=O)[O-])c(OC(=O)c3ccc(NC(=O)C(C)C)cc3)c2)cc1` [Compound 56], the IC50 under setting [1] was 8.4 nM.

As to `CC(C)(C)C(=O)Nc1ccc(C(=O)Oc2cc(Cl)cc(OC(=O)C3CC3)c2)cc1` [Compound 57, 3-chloro-5-(cyclopropanecarbonyloxy)phenyl 4-(pivaloylamino)benzoate], the IC50 under setting [1] amounted to 2.9 nM.

As for `CN(C)C(=O)Oc1cc(Cl)cc(OC(=O)c2ccc(NC(=O)C(C)(C)C)cc2)c1` [Compound 58, 3-chloro-5-(dimethylaminocarbonyloxy)phenyl 4-(pivaloylamino)benzoate], it took 3.5 nM to reach half-maximal inhibition (IC50).

`CC(C)(C)C(=O)Nc1ccc(C(=O)Oc2cc(F)ccc2[N+](=O)[O-])cc1` [Compound 59, 3-fluoro-6-nitrophenyl 4-(pivaloylamino)benzoate]: the IC50 under setting [1] came out at 2.7 nM.

Take `CC(C)(C)C(=O)Nc1ccc(C(=O)Oc2cc(C=O)ccc2[N+](=O)[O-])cc1` [Compound 60, 3-formyl-6-nitrophenyl 4-(pivaloylamino)benzoate]: the half-maximal inhibitory concentration (IC50) under setting [1] amounted to 4.2 nM.

Consider `CC(C)C(=O)Nc1ccc(C(=O)Oc2ccccc2C#N)cc1` [Compound 61, 2-cyanophenyl 4-(isobutanoylamino)benzoate], for which the half-maximal inhibitory concentration (IC50) under setting [1] is 9.3 nM.

Turning to `CC(C)C(=O)Nc1ccc(C(=O)Oc2cc(Cl)ccc2C#N)cc1` [Compound 62, 3-chloro-6-cyanophenyl 4-(isobutanoylamino)benzoate], the IC50 under setting [1] stood at 1.3 nM.

`COC(=O)c1ccc(Cl)cc1OC(=O)c1ccc(NC(=O)C(C)C)cc1` [Compound 63, 3-chloro-6-(methoxycarbonyl)phenyl 4-(isobutanoylamino)benzoate]: the IC50 under setting [1] is 97 nM.

Consider `CC(C)C(=O)Nc1ccc(C(=O)Oc2cc(C(F)(F)F)cc(C(F)(F)F)c2)cc1` [Compound 64], for which the IC50 under setting [1] was 220 nM.

In the case of `CC(C)C(=O)Nc1ccc(C(=O)Oc2cc(Cl)cc(Cl)c2Cl)cc1` [Compound 65, 2,3,5-trichlorophenyl 4-(isobutanoylamino)benzoate], the half-maximal inhibitory concentration (IC50) under setting [1] came to 4.5 nM.

For the molecule `CC(C)C(=O)Nc1ccc(C(=O)Oc2c(Cl)cccc2Cl)cc1` [Compound 66, 2,6-dichlorophenyl 4-(isobutanoylamino)benzoate], the IC50 under setting [1] is 94 nM.

With `CC(C)C(=O)Nc1ccc(C(=O)Oc2cccc(F)c2F)cc1` [Compound 67, 2,3-difluorophenyl 4-(isobutanoylamino)benzoate], the concentration for half-maximal inhibition (IC50) under setting [1] was 88 nM.

As for `CC(C)C(=O)Nc1ccc(C(=O)Oc2cc(F)ccc2F)cc1` [Compound 68, 2,5-difluorophenyl 4-(isobutanoylamino)benzoate], under setting [1], the IC50 was 110 nM.

In the case of `CC(C)C(=O)Nc1ccc(C(=O)Oc2c(F)cccc2F)cc1` [Compound 69, 2,6-difluorophenyl 4-(isobutanoylamino)benzoate], under setting [1], the IC50 was 25 nM.

With `CC(C)C(=O)Nc1ccc(C(=O)Oc2cc(F)cc(F)c2)cc1` [Compound 70, 3,5-difluorophenyl 4-(isobutanoylamino)benzoate], the 50% inhibitory concentration (IC50) under setting [1] came to 26 nM.

For the molecule `CC(C)C(=O)Nc1ccc(C(=O)Oc2cccc(F)c2)cc1` [Compound 71, 3-fluorophenyl 4-(isobutanoylamino)benzoate], the IC50 under setting [1] was 310 nM.

Regarding `CC(C)C(=O)Nc1ccc(C(=O)Oc2cccc(Br)c2)cc1` [Compound 72, 3-bromophenyl 4-(isobutanoylamino)benzoate], the IC50 under setting [1] was 21 nM.

For the molecule `CC(C)C(=O)Nc1ccc(C(=O)Oc2cc(O)cc(Cl)c2)cc1` [Compound 73, 3-chloro-5-hydroxyphenyl 4-(isobutanoylamino)benzoate], the half-maximal inhibitory concentration (IC50) under setting [1] stood at 110 nM.

On to `CC(=O)Oc1cc(Cl)cc(OC(=O)c2ccc(NC(=O)C(C)C)cc2)c1` [Compound 74, 3-acetoxy-5-chlorophenyl 4-(isobutanoylamino)benzoate], for which the IC50 under setting [1] is 3.3 nM.

Regarding `CCC(=O)Oc1cc(Cl)cc(OC(=O)c2ccc(NC(=O)C(C)C)cc2)c1` [Compound 75, 3-chloro-5-propanoyloxyphenyl 4-(isobutanoylamino)benzoate], the 50% inhibitory concentration (IC50) under setting [1] came to 2.5 nM.

Turning to `CC(C)C(=O)Nc1ccc(C(=O)Oc2cc(Cl)cc(OC(=O)C(C)C)c2)cc1` [Compound 76, 3-chloro-5-isobutanoyloxyphenyl 4-(isobutanoylamino)benzoate], the IC50 under setting [1] was found to be 1.9 nM.

Turning to `CC(C)C(=O)Nc1ccc(C(=O)Oc2cc(Cl)cc(OC(=O)C3CC3)c2)cc1` [Compound 77, 3-chloro-5-(cyclopropanecarbonyloxy)phenyl 4-(isobutanoylamino)benzoate], under setting [1], the half-maximal inhibitory concentration (IC50) is 3.8 nM.

With `CC(C)C(=O)Nc1ccc(C(=O)Oc2cc(Cl)cc(OC(=O)C3(C)CC3)c2)cc1` [Compound 78, 3-chloro-5-(1-methylcyclopropanecarbonyloxy)phenyl 4-(isobutanoylamino)benzoate], the half-maximal inhibitory concentration (IC50) under setting [1] was 9.6 nM.

For the molecule `CC(C)C(=O)Nc1ccc(C(=O)Oc2cc(Cl)cc(OC(=O)C3CCCCC3)c2)cc1` [Compound 79, 3-chloro-5-(cyclohexanecarbonyloxy)phenyl 4-(isobutanoylamino)benzoate], under setting [1], the IC50 was found to be 110 nM.

As for `CC(C)C(=O)Nc1ccc(C(=O)Oc2cc(Cl)cc(OC(=O)C=Cc3ccccc3)c2)cc1` [Compound 80, 3-cinnamoyloxy-5-chlorophenyl 4-(isobutanoylamino)benzoate], under setting [1], the IC50 worked out at 24 nM.
